Reference: patent US20250283896A1, “PROBES AND METHODS FOR TARGETED VISUALIZATION OF NLRP3 INFLAMMASOMES” (VANDERBILT UNIVERSITY, priority 2022, published 2025)

What was measured:
[1] = system: primary mouse retinal microvascular endothelial cells (MRMEC); test: Cell viability assay with Calcein Deep Red AM ester; type: cell-based; conditions: 20 h, 70% ethanol in water; p<0.01
Experimental: Cell culture: Bone marrow-derived macrophages (BMDM), isolated from adult C57BL/6 mouse bone marrow, were purchased from ScienCell Research Laboratories (Carlsbad, CA) and cultured in ScienCell's phenol red-free Macrophage Medium (MaM) supplemented with 5% fetal bovine serum (FBS), Macrophage Growth Supplement (MaGS), and 1% Penicillin-Streptomycin (Pen, 100 U/mL; Strep, 100 μg/mL). Mouse Primary Retinal Microvascular Endothelial Cells (MRMEC), isolated from C57BL/6 mice, were purchased from Cell Biologics Inc. […] The medium was additionally supplemented with 10% FBS (R&D Systems, Minneapolis, MN). BMDMs and […] were incubated at 37° C., 5% CO2, and 95% relative humidity. Cell viability assay: […] (Passage 4) were seeded on sterile black 96-well plates in complete medium at a density of 1.5×10^4 cells per well. […] This fluorescent compound is redshifted relative to […]=510/540 nm), which is necessary to avoid interference from any InflammaProbe-1-dependent fluorescence during fluorometric measurements. […] Finally, fluorometric measurements were performed at ex/em=620/660 nm using the Cytation 5 microplate reader (BioTek Instruments, Inc., Winooski, VT). Fluorescence intensities were plotted as the percentage of cell viability relative to the control group. The data were expressed as the mean±SD of 6 replicates per group.

[2] = molecular target: T1, NLRP3 inflammasome (Mus musculus, UniProt Q8R4B8); test: Inhibition assay of IL-1β (ELISA) in LPS-primed and nigericin-stimulated BMDMs; type: cell-based, murine
T1 construct: InflammaProbe-1 could selectively stain macrophages that have been induced to express NLRP3; host or cells: primary C57BL/6 mouse bone marrow-derived macrophages (BMDM)
Experimental: (§1) Cell culture: Bone marrow-derived macrophages (BMDM), isolated from adult C57BL/6 mouse bone marrow, were purchased from ScienCell Research Laboratories (Carlsbad, CA) and cultured in ScienCell's phenol red-free Macrophage Medium (MaM) supplemented with 5% fetal bovine serum (FBS), Macrophage Growth Supplement (MaGS), and 1% Penicillin-Streptomycin (Pen, 100 U/mL; Strep, 100 μg/mL). Mouse Primary Retinal Microvascular Endothelial Cells (MRMEC), isolated from C57BL/6 mice, were purchased from Cell Biologics Inc. (Chicago, IL) and cultured in Cell Biologics' phenol red-free Endothelial Cell Medium supplemented with 0.1% VEGF, 0.1% Heparin, 0.1% EGF, 0.1% ECGS, 0.1% Hydrocortisone, 2 mM L-Glutamine, and 1% Antibiotic-Antimycotic. The medium was additionally supplemented with 10% FBS (R&D Systems, Minneapolis, MN). BMDMs and MRMECs were incubated at 37° C., 5% CO2, and 95% relative humidity.
Inhibition assay of IL-1β and TNF-α: BMDMs were seeded in 12-well plates at a density of 5×10^4 cells per well. After an overnight incubation, the cells were primed with 50 ng/mL LPS for 3 h, treated with 1 to 10 µM InflammaProbe-1 or CY-09 for 1 h, and stimulated with 10 μM nigericin for another hour to induce NLRP3 activation, as described in the literature. Cell culture supernatants were assayed for mouse IL-1β and TNF-α by performing enzyme-linked immunosorbent assays (ELISA; Invitrogen, Waltham, MA) in accordance with the manufacturer's instructions. The data were expressed as the mean±SD of 3 replicates per group.

[3] = system: TNF-α; test: Off-target assay of LPS-induced TNF-α secretion (ELISA) in BMDMs; type: cell-based, murine; conditions: 10 μM; in comparison to InflammaProbe-1, p<0.05
Experimental: as §1
Inhibition assay of IL-1β and TNF-α: BMDMs were seeded in 12-well plates at a density of 5×10^4 cells per well. After an overnight incubation, the cells were primed with 50 ng/mL LPS for 3 h, treated with 1 to 10 µM InflammaProbe-1 or CY-09 for 1 h, and stimulated with 10 μM nigericin for another hour to induce NLRP3 activation, as described in the literature. […] The data were expressed as the mean±SD of 3 replicates per group.

[4] = molecular target: NLRP3 (Mus musculus, UniProt Q8R4B8); conditions: murine model, literature; cited from earlier work
Chain of NLRP3 (Q8R4B8 whole entry): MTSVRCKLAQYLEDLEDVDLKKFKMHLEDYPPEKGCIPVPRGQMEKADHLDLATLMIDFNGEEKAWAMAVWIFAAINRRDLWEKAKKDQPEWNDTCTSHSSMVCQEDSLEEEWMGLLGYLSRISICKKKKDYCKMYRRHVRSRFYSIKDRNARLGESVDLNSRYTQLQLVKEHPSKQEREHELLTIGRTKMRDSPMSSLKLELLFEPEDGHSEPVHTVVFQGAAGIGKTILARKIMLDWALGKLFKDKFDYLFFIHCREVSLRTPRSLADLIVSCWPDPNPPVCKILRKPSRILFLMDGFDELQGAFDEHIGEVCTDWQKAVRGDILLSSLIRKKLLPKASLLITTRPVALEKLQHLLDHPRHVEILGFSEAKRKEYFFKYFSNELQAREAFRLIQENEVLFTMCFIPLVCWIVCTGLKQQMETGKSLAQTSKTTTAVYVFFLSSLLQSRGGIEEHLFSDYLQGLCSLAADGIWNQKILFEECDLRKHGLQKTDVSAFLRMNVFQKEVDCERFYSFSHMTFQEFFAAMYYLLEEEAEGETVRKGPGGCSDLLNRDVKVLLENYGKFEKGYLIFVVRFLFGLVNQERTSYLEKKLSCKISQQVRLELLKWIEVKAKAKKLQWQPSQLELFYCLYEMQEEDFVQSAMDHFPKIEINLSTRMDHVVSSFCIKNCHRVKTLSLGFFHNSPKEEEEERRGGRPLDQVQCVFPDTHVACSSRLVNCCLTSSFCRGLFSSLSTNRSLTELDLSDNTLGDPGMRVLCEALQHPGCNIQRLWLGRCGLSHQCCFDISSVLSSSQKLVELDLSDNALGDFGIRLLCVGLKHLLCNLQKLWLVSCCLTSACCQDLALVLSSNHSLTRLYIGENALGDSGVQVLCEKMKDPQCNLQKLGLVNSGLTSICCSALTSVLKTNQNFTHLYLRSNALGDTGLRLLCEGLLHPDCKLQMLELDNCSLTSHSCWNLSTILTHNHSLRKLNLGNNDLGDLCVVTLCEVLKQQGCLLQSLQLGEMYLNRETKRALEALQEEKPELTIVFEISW

T1 sequence (Q8R4B8 whole entry): as above

In the case of `CCO` [70% ethanol, ethanol], the “viability of MRMECs (positive control)” value [1] is reported as “significantly decreased”.
With `O=C(O)c1ccc(/C=C2/SC(=S)N(Cc3cccc(C(F)(F)F)c3)C2=O)cc1` [CY-09] the “decrease of IL-1β levels in comparison to the LPS and nigericin control” value (“decrease of IL-1β levels in comparison” below) ([2]; 1 μM, p<0.05) was ~1.3 fold, the “decrease of IL-1β levels in comparison” value ([2]; 5 μM, p<0.01) was ~2 fold and the “decrease of IL-1β levels in comparison” value ([2]; 10 μM, p<0.01) was ~4 fold. For the same compound, the “inhibition of NLRP3-mediated secretion of IL-1β” value ([2]; LPS-primed and nigericin-stimulated murine BMDM, 1 to 10 μM) was “dose-dependently inhibited”, the “effect on levels of TNF-α” value [3] was “significantly decreased” and the “NLRP3-mediated cellular secretion of IL-1β” value [4] was “suppressed”.
